In ChEMBL document CHEMBL1201862, “PubChem BioAssay data set” (2004):
Active and inactive are the calls of the source.

Columns and labels:
cells [1] = type: functional, cell-based
[2] = molecular target: T1, Trace amine-associated receptor 1 (Homo sapiens, UniProt Q96RJ0); test: Fluorescence-based cell-based high throughput dose response assay to identify agonists of the human trace amine associated receptor 1 (TAAR1).; type: functional
T1 sequence (Q96RJ0 whole entry): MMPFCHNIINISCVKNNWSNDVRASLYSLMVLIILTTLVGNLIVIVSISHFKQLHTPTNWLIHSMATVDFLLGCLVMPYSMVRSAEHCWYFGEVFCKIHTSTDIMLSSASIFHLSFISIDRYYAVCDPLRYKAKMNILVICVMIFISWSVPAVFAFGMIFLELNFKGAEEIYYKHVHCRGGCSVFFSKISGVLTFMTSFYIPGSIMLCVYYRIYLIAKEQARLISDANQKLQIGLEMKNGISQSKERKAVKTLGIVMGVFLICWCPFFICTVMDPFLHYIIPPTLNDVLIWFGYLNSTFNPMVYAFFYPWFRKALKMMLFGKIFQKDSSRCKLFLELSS

[3] = molecular target: T1, Trace amine-associated receptor 1; test: Counterscreen for agonists of the human trace amine associated receptor 1 (hTAAR1): Fluorescence-based cell-based high throughput dose response assay to identify hTAAR1 agonist that also desensitize TAAR1 receptor response.; type: functional
cells [4] = type: functional, cell-based; remark: listed apart in the source
[5] = molecular target: Fructose-bisphosphate aldolase (Mycobacterium tuberculosis, UniProt P9WQA3); test: Fluorescence-based biochemical high throughput dose response assay for inhibitors of the fructose-bisphosphate aldolase (FBA) of M. tuberculosis.; type: functional
[6] = NIH-3T3 fibroblast cytotoxicity, dose response, cytotoxicity control, cell-based, fluorescence, Alamar Blue, secondary assay (AID 2327); type: functional;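 also: NIH-3T3 mouse fibroblasts cultured with fluconazole at 8 µg/mL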
[7] = fluconazole-exposed Candida albicans growth modulators – fluorescence, retest, confirmation (AID 2467); type: functional, cell-based
[8] = Trypanosoma cruzi growth suppression in host cells – NIH3T3 host cells, beta-gal luminescence, confirmation (AID 2044); type: functional, cell-based;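 also: intracellular parasites grown in NIH/3T3 mouse fibroblasts as host cells; luminescent beta-galactosidase reporter signal from transgenic T. cruzi replicating inside host cells; inhibitors lower the luminescence signal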
[9] = NIH3T3 cell viability loss – ATP luminescence, mouse fibroblasts, counter-screen, dose response (AID 2010); type: functional, cell-based;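 also: cells exposed to compound for about 90 hours before reading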
[10] = HEK-293T cell viability reduction – luminescence, B-cell screen hits, cytotoxicity control for BCR NF-kB inhibitor project, dose response (AID 489021); type: functional, cell-based;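 also: HEK-293T cells carrying an NF-kB luciferase reporter; cells exposed to compound for about 14 hours before viability readout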
INS1 = test: INS-1E survival protection against cytokine death – cell-based, luminescence, retest, dose response (AID 449756); type: functional; conditions: Rattus norvegicus;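 also: cell death triggered by IL-1 beta plus TNF-alpha plus IFN-gamma mixture; protective hits raise ATP signal compared with cytokine alone wells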
[11] = molecular target: COUP transcription factor 2 (Homo sapiens, UniProt P24468); test: Luminescence-based cell-based high throughput dose response assay to identify inhibitors of COUP-TFII (NR2F2).; type: functional;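 also: HEK293 cells transiently cotransfected with COUP-TFII expression vector and reporter; luciferase reporter luminescence driven by COUP-TFII from the pX2-168 reporter plasmid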
cells [12] = type: functional, cell-based; remark: listed apart in the source
[13] = molecular target: Nuclear receptor subfamily 0 group B member 1 (Homo sapiens, UniProt P51843); type: functional, cell-based;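 also: HEK293T cells transfected with SF-1 and DAX-1 plus StAR promoter luciferase reporter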
Major prion protein = Major prion protein (Homo sapiens, UniProt P04156); type: functional, cell-based
cells [14] = test: cells
[15] = viability of PTEN-deleted HCT116 cells – cell-based, HCT116 PTEN knockout, dose response (AID 1047); type: functional;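 also: HCT116 colon tumor cells with PTEN knocked out; cells exposed to compound for 60 hours before readout; potency for loss of cell viability measured by luminescence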
[16] = viability of HCT116 lacking mutant beta-catenin – cell-based, human colon tumor, dose response (AID 1045); type: functional;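 also: HCT116 colon tumor cells with beta catenin knocked out; cells exposed to compound for 60 hours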
[17] = molecular target: T2, Ubiquitin-conjugating enzyme E2 N (Homo sapiens, UniProt P61088); type: functional;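 also: Dose-response confirmation in a TR-FRET assay detecting UBC13-driven polyubiquitin chain formation, inhibition measured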
T2 sequence (P61088 whole entry): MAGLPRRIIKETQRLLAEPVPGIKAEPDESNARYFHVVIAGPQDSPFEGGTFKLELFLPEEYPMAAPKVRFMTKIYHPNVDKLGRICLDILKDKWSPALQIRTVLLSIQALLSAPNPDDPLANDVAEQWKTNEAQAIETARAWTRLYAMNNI

[18] = viability loss in HEK293T cells – cell-based, cherry-picks, cytotoxicity control for HIV Vif inhibitor project, dose response (AID 652208); type: functional
Galanin receptor type 3 = Galanin receptor type 3 (Homo sapiens, UniProt O60755); test: Fluorescence-based cell-based primary high throughput dose response assay to identify antagonists of the Galanin Receptor 3 (GalR3).; type: functional
cells [19] = type: functional, cell-based; conditions: HEK-CNG
[20] = Counterscreen for […] of the human trace amine associated receptor 1 (TAAR1): Fluorescence-based cell-based high throughput dose response assay to identify nonselective Ga16 agonists.; type: functional
[21] = Counterscreen for antagonists of the human trace amine associated receptor 1 (hTAAR1): Fluorescence-based cell-based high throughput dose response assay to identify nonselective Ga16 antagonists.; type: functional
[22] = molecular target: T3, RNA-binding protein pos-1 (Caenorhabditis elegans, UniProt G5EF15); test: disruptors of C. elegans POS-1 RNA interaction – biochemical, fluorescence polarization, dose response (AID 1964);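 also: purified POS-1 fused to maltose binding protein made in E. coli; potency of compounds blocking POS-1 binding to fluorescent RNA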
T3 sequence (G5EF15 whole entry): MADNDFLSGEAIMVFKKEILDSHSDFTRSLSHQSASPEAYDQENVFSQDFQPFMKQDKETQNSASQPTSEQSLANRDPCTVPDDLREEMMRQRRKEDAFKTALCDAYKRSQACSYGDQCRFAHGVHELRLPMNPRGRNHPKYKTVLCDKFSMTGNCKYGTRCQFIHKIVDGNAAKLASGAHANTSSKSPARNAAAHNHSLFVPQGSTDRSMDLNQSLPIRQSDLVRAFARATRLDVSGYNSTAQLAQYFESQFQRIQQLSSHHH

[23] = molecular target: 26S proteasome non-ATPase regulatory subunit 14 (Homo sapiens, UniProt O00487); test: inhibition of proteasome subunit RPN11 – biochemical, fluorescence polarization, uHTS hits, confirmation (AID 602368); type: functional
[24] = molecular target: 72 kDa type IV collagenase (Homo sapiens, UniProt P08253); test: Dose Response validation of uHTS RPN11 inhibitor hits using a MMP-2 Fluorescence assay.; type: functional
Prothrombin = Prothrombin (Bos taurus, UniProt P00735); test: thrombin protease inhibitors – biochemical, fluorescence polarization, uHTS hits, dose response (AID 602369); type: functional
Albumin = Albumin (Bos taurus, UniProt P02769); test: Counterscreen for inhibitors of T-cell receptor (TCR)-CD3 interaction: Fluorescence-based biochemical high throughput dose response assay to identify inhibitors of T-cell receptor (TCR)-CD3 interaction using a TAMRA-labeled BSA probe.; type: functional

In the case of O=C(Nc1cccc2ccccc12)N1CCc2ccccc2C1, the IC50 (cells [1]) is reported as > 29.9 µM (inactive), the EC50 [2] is reported as 0.266 µM (active) and the IC50 [3] is reported as 9.86 µM (active). The EC50 (cells [4]) was > 29.9 µM (inactive) and the IC50 [5] was > 9.99 µM (inactive).
For CCOc1ccc(-[n+]2c(-c3ccccc3)cn3c2CCCCC3)cc1, the EC50 [6] was > 150 µM (inactive), the EC50 [7] was 16.3 µM (active) and the EC50 [8] was 0.534 µM (active). The EC50 [9] was 7 µM (active), the IC50 [10] was > 80 µM (inactive) and the AC50 (INS1) was 0.822 µM (active). The IC50 [11] was 8.69 µM (active).
For COc1ccccc1OCc1cc(C(=O)N(C)CCC2CCCCO2)no1 (centres undefined), the IC50 (cells [12]) was > 67.5 µM (inactive) and the IC50 [13] was > 67.5 µM (inactive).
In the case of CSc1nc(-c2cccs2)c(C#N)c(=O)[nH]1, the IC50 (Major prion protein) is reported as 3.22 µM (active).
With CSc1nc(O)c(C#N)c(-c2cccs2)n1 the IC50 (cells [14]) was > 138 µM (inactive).
In the case of COc1cc2c3nnc(-c4ccc(F)cc4)c-3cn(Cc3ccc(F)cc3)c2cc1OC, the EC50 [15] is reported as 6.2 µM (active), the EC50 [16] is reported as 7.33 µM (active) and the IC50 [17] is reported as > 20 µM (inactive). The AC50 [18] was 26.3 µM (active).
For COc1cccc(CN(C)C(=O)CNC(=O)c2ccc(-c3ccccc3)cc2)c1OC, the IC50 (Galanin receptor type 3) was > 1.11 µM (active) and the EC50 (cells [19]) was > 29.9 µM (inactive).
For CCCCC(=O)Nc1ccc(C(=O)Nc2ccc(S(=O)(=O)N3CCCC3)cc2)cc1, the EC50 [20] was > 29.9 µM (inactive) and the IC50 [21] was > 29.9 µM (inactive).
For O=C1NC(=O)N(CCc2ccccc2)C(=O)/C1=C/NNC(=O)c1ccccc1O, the EC50 [22] was 69.9 µM (active), the IC50 [23] was 63.5 µM (active) and the IC50 [24] was > 100 µM (inactive). The IC50 (Prothrombin) was 47.2 µM (active) and the IC50 (Albumin) was > 94 µM (inactive).
